Reference: patent publication US12577255B2, “MDM2-based modulators of proteolysis and associated methods of use” (Arvinas Operations, Inc., priority 2015, dated 2026)

Columns and labels:
p53 = assay: Western blot of HCT116 cells, p53 level; assay type: cell-based, human; conditions: Western blot (FIG. 2, FIG. 3)
MDM2 = target: T1, MDM2 (Homo sapiens, UniProt Q00987); assay: Western blot of HCT116 cells, MDM2 level; assay type: cell-based; conditions: Western blot (FIG. 2, FIG. 3)
T1 construct: Western blot of HCT116 cells treated with chimeric molecules; endogenous in cells; host or cells: HCT116
T1 sequence (Q00987 whole entry): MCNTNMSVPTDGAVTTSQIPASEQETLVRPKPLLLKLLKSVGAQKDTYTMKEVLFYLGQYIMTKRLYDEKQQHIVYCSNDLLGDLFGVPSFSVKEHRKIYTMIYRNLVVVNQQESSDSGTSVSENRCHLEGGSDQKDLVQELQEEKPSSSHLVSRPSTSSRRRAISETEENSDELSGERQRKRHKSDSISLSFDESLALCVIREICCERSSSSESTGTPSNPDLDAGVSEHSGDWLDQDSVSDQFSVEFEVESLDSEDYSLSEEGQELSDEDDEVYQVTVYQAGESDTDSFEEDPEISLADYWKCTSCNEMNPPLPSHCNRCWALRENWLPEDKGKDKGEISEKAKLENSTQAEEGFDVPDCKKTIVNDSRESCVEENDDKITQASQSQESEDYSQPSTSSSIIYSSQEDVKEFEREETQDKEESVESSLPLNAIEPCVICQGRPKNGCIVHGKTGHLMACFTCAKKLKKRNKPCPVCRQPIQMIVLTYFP

[1] = target: T2, bromodomain-containing protein 4 (BRD4) (Homo sapiens, UniProt O60885); assay: BRD4 Western blot (degradation); assay type: cell-based; conditions: at 1 μM; VCaP cells, 16 h
T2 construct: VCaP cells were chased from ATCC and cultured in Dulbecco's Modified Eagle's Medium; host or cells: VCaP
Experimental: (§1) The following biological assays were performed to evaluate the protein degradation in various cell types using representative compounds disclosed. The degradation of the following proteins were evaluated: bromodomain-containing protein 4 (BRD4), androgen receptor (AR), c-Myc, c-Jun N-terminal kinases (JNK), and enhancer of zeste homolog 2 (EZH2).
VCaP cells were chased from ATCC and cultured in Dulbecco's Modified Eagle's Medium (ATCC), supplemented with 10% FBS (ATCC) and Penicillin/Streptomycin (Life Technologies). DMSO control and compound treatments (0.03 μM to 1 μM) were performed in 12-well plates for 16 h. cells were harvested, and lysed in RIPA buffer (50 mM Tris pH8, 150 mM NaCl, 1% Tx-100, 0.1% SDS, 0.5% sodium deoxycholate) supplemented with protease and phosphatase inhibitors. Lysates were clarified at 16,000 g for 10 minutes, and protein concentration was determined. Equal amount of protein (20 μg) was subjected to SDS-PAGE analysis and followed by immunoblotting according to standard protocols. The antibodies used were BRD4 (Cell signaling #13440), and Actin (Sigma #5441). Detection reagents were Clarity Western ELC substrate (Bio-rad #170-5060).

androgen receptor (AR) = target: T3, androgen receptor (AR) (Homo sapiens, UniProt P10275); assay: AR ELISA assay (degradation); assay type: cell-based; conditions: VCaP cells, 16 h
T3 construct: detects endogenous levels of total androgen receptor protein; host or cells: VCaP
T3 sequence (P10275 1-920): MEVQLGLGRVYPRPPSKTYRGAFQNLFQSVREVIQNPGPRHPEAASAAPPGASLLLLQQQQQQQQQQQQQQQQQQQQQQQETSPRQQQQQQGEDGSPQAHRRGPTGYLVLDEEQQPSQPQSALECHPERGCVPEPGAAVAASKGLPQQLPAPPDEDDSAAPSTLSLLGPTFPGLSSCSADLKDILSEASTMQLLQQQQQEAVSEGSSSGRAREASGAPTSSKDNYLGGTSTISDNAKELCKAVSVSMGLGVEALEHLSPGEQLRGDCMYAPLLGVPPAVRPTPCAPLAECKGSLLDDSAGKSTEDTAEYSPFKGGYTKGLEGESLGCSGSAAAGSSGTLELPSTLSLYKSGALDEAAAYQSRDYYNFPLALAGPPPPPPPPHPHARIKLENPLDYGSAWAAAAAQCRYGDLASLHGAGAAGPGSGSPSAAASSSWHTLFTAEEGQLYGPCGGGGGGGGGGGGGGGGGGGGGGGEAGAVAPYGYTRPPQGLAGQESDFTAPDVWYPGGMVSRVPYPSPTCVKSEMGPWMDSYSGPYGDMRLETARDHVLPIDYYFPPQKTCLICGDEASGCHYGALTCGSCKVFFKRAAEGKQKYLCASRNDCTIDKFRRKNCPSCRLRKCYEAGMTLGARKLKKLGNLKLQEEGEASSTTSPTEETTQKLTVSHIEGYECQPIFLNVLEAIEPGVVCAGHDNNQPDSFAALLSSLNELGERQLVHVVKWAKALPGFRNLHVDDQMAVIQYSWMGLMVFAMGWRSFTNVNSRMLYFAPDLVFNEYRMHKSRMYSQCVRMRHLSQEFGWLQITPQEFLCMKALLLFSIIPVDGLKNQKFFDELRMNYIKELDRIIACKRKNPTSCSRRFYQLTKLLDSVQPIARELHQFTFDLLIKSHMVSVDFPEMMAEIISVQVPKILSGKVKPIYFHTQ
Experimental: as §1
VCaP cells were chased from ATCC and cultured in Dulbecco's Modified Eagle's Medium (ATCC), supplemented with 10% FBS (ATCC) and Penicillin/Streptomycin (Life Technologies). DMSO control and compound treatments (0.0001 μM to 1 μM) were performed in 96-well plates for 16 h. cells were harvested, and lysed with Cell Lysis Buffer (catalog #9803) (20 mM Tris-HCl, pH 7.5, 150 mM NaCl, 1 mM Na2EDTA, 1 mM EGTA, 1% Triton, 2.5 mM sodium pyrophosphate, 1 mM B-glycerophosphate, 1 mM Na3VO4, 1 μg/mL leupeptin. Lysates were clarified at 16,000 g for 10 minutes, and loaded into PathScan AR ELISA (Cell Signaling Catalog #12850). The PathScan Total Androgen Receptor Sanwich ELISA Kit is a solid phase sandwich enzyme-linked immunosorbent assay (ELISA) that detects endogenous levels of total androgen receptor protein. An Androgen Receptor Rabbit mAb has been coated onto the microwells. After incubation with cell lysates, androgen receptor protein is captured by the coated antibody. Following extensive washing, an Androgen receptor Mouse Detection mAbis added to detect the captured androgen receptor protein. Anti-mouse IgG, HRP-linked Antibody is then used to recognize the bound detection antibody. HRP substrate, TMB, is added to develop color. The magnitude of absorbance for the developed color is proportional to the quantity of total androgen receptor protein.

SMILES | MDM2 up-regulation (MDM2) | Degradation activity BRD4 [1] | AR degradation (%) at 1 µM (androgen receptor (AR)) [%] | p53 level increase (p53)
COc1cc(C(=O)NCCOCCOCCOCCOCCNC(=O)C[C@@H]2N=C(c3ccc(Cl)cc3)c3c(sc(C)c3C)-n3c(C)nnc32)ccc1NC(=O)[C@H]1N[C@H](CC(C)(C)C)[C@@](C#N)(c2ccc(Cl)cc2F)[C@@H]1c1cccc(Cl)c1F [Compound A1894, (2S,3R,4S,5R)-3-(3-chloro-2-fluorophenyl)-4-(4-chloro-2-fluorophenyl)-N-{4-[(14-{2-[(9S)-7-(4-chlorophenyl)-4,5,13-trimethyl-3-thia-1,8,11,12-tetraazatricyclo[8.3.0.0^2,^6]-trideca-2(6),4,7,10,12-pentaen-9-yl]acetamido}-3,6,9,12-tetraoxatetradecan-1-yl)carbamoyl]-2-methoxyphenyl}-4-cyano-5-(2,2-dimethylpropyl)pyrrolidine-2-carboxamide] | no MDM2 up-regulation | A (0 to 25% degradation at 1 μM) |  | no p53 level increase
COc1cc(C(=O)NCCOCCNC(=O)C[C@@H]2N=C(c3ccc(Cl)cc3)c3c(sc(C)c3C)-n3c(C)nnc32)ccc1NC(=O)[C@H]1N[C@H](CC(C)(C)C)[C@@](C#N)(c2ccc(Cl)cc2F)[C@@H]1c1cccc(Cl)c1F [Compound A1891, (2S,3R,4S,5R)-3-(3-chloro-2-fluorophenyl)-4-(4-chloro-2-fluorophenyl)-N-(4-{[2-(2-{2-[(9S)-7-(4-chlorophenyl)-4,5,13-trimethyl-3-thia-1,8,11,12-tetraazatricyclo[8.3.0.0^2,^6]-trideca-2(6),4,7,10,12-pentaen-9-yl]acetamido}ethoxy)ethyl]carbamoyl}-2-methoxyphenyl)-4-cyano-5-(2,2-dimethylpropyl)pyrrolidine-2-carboxamide] | no MDM2 up-regulation | A (0 to 25% degradation at 1 μM) |  | no p53 level increase
COc1cc(C(=O)NCCOCCOCC(=O)N[C@H](C(=O)N2C[C@H](O)C[C@H]2C(=O)NCc2ccc(-c3scnc3C)cc2)C(C)(C)C)ccc1NC(=O)[C@H]1N[C@H](CC(C)(C)C)[C@@](C#N)(c2ccc(Cl)cc2F)[C@@H]1c1cccc(Cl)c1F [Compound A1908] | no MDM2 up-regulation |  |  | no p53 level increase
CC(C)(C)C[C@@H]1NC(C(=O)NCCOCCOCCOc2ccc(C(=O)N[C@H]3C(C)(C)[C@H](Oc4ccc(C#N)c(Cl)c4)C3(C)C)cc2)[C@H](c2cccc(Cl)c2F)[C@@]1(C#N)c1ccc(Cl)cc1F (stereo partly drawn) [Compound A1621, 3-(3-chloro-2-fluorophenyl)-4-(4-chloro-2-fluorophenyl)-4-cyano-5-(2,2-dimethylpropyl)-N-(2-{2-[2-(4-{[(1,3-trans)-3-(3-chloro-4-cyanophenoxy)-2,2,4,4-tetramethylcyclobutyl]carbamoyl}phenoxy)ethoxy]ethoxy}ethyl)pyrrolidine-2-carboxamide] |  |  | 0 to 25 | 
CC(C)(C)C[C@@H]1NC(C(=O)NCCOCCOCCOCCOCCOCCOc2ccc(C(=O)N[C@H]3C(C)(C)[C@H](Oc4ccc(C#N)c(Cl)c4)C3(C)C)cc2)[C@H](c2cccc(Cl)c2F)[C@@]1(C#N)c1ccc(Cl)cc1F (stereo partly drawn) [Compound A1688, 3-(3-chloro-2-fluorophenyl)-4-(4-chloro-2-fluorophenyl)-4-cyano-5-(2,2-dimethylpropyl)-N-[1-(4-{[(1,3-trans)-3-(3-chloro-4-cyanophenoxy)-2,2,4,4-tetramethylcyclobutyl]-carbamoyl}phenyl)-1,4,7,10,13,16-hexaoxaoctadecan-18-yl]pyrrolidine-2-carboxamide] |  |  | 0 to 25 | 
CC(C)(C)C[C@@H]1NC(C(=O)NCCOCCOc2ccc(C(=O)N[C@H]3C(C)(C)[C@H](Oc4ccc(C#N)c(Cl)c4)C3(C)C)cc2)[C@H](c2cccc(Cl)c2F)[C@@]1(C#N)c1ccc(Cl)cc1F (stereo partly drawn) [Compound A1571, 3-(3-chloro-2-fluorophenyl)-4-(4-chloro-2-fluorophenyl)-4-cyano-5-(2,2-dimethylpropyl)-N-{2-[2-(4-{[(1,3-trans)-3-(3-chloro-4-cyanophenoxy)-2,2,4,4-tetramethylcyclobutyl]carbamoyl}phenoxy)ethoxy]ethyl}pyrrolidine-2-carboxamide] |  |  | 0 to 25 | 

Now from value to molecule, other results behind:

MDM2 up-regulation (MDM2) | Degradation activity BRD4 [1] | AR degradation (%) at 1 µM (androgen receptor (AR)) [%] | SMILES | p53 level increase (p53)
no MDM2 up-regulation |  |  | COc1cc(C(=O)NCCOCCOCCOCCOCC(=O)N[C@H](C(=O)N2C[C@H](O)C[C@H]2C(=O)NCc2ccc(-c3scnc3C)cc2)C(C)(C)C)ccc1NC(=O)[C@H]1N[C@H](CC(C)(C)C)[C@@](C#N)(c2ccc(Cl)cc2F)[C@@H]1c1cccc(Cl)c1F (single isomer, unassigned) [Compound A1897] | no p53 level increase
up-regulation of MDM2 |  |  | COc1cc(C(=O)NCCOCCOCC(=O)N[C@H](C(=O)N2C[C@H](O)C[C@H]2C(=O)NCc2ccc(-c3scnc3C)cc2)C(C)(C)C)ccc1NC(=O)C1NC(CC(C)(C)C)C(C#N)(c2ccc(Cl)cc2F)C1c1cccc(Cl)c1F (mixture of isomers) [Compound A1877, 3-(3-chloro-2-fluorophenyl)-4-(4-chloro-2-fluorophenyl)-4-cyano-5-(2,2-dimethylpropyl)-N-[4-({2-[2-({[(2S)-1-[(2S,4R)-4-hydroxy-2-({[4-(4-methyl-1,3-thiazol-5-yl)phenyl]methyl}carbamoyl)pyrrolidin-1-yl]-3,3-dimethyl-1-oxobutan-2-yl]carbamoyl}methoxy)ethoxy]ethyl}carbamoyl)-2-methoxyphenyl]pyrrolidine-2-carboxamide] | dose dependent p53 level increase
no MDM2 up-regulation |  |  | COc1cc(C(=O)NCCOCCOCCOCC(=O)N[C@H](C(=O)N2C[C@H](O)C[C@H]2C(=O)NCc2ccc(-c3scnc3C)cc2)C(C)(C)C)ccc1NC(=O)[C@H]1N[C@H](CC(C)(C)C)[C@@](C#N)(c2ccc(Cl)cc2F)[C@@H]1c1cccc(Cl)c1F [Compound A1911, (2S,3R,4S,5R)-3-(3-chloro-2-fluorophenyl)-4-(4-chloro-2-fluorophenyl)-4-cyano-5-(2,2-dimethylpropyl)-N-{4-[(2-{2-[2-({[(2S)-1-[(2S,4R)-4-hydroxy-2-({[4-(4-methyl-1,3-thiazol-5-yl)phenyl]methyl}-carbamoyl)pyrrolidin-1-yl]-3,3-dimethyl-1-oxobutan-2-yl]carbamoyl}methoxy)-ethoxy]ethoxy}ethyl)carbamoyl]-2-methoxyphenyl}pyrrolidine-2-carboxamide] | no p53 level increase
